In ChEMBL document CHEMBL1201862, “PubChem BioAssay data set” (2004):
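In this assay, cells in 96-well plates receive the compound at five concentrations for 48 hours. Endpoints are linearly interpolated between the surrounding concentrations. GI50 marks 50% less growth.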 The source made the active and inactive calls. Rule as the data show it: active = GI50 up to about 1.1 µM and inactive = higher.

How the values were obtained:
Assay in all cases: inhibition of tumour cell growth, NCI panel, 48 h
[1] = system: SF-295
[2] = system: Hs-578T
[3] = system: LOX IMVI
[4] = system: RXF 393
[5] = system: OVCAR-4
[6] = system: HT-29
[7] = system: M14
[8] = system: SK-MEL-2
[9] = system: CCRF-CEM
[10] = system: UO-31
[11] = system: BT-549
[12] = system: SW-620
[13] = system: NCI/ADR-RES
[14] = system: U-251
[15] = system: NCI-H23
[16] = system: EKVX
[17] = system: UACC-62
[18] = system: NCI-H460
[19] = system: PC-3
[20] = system: IGROV-1
[21] = system: 786-0
[22] = system: OVCAR-8
[23] = system: A498
[24] = system: MOLT-4
[25] = system: HCT-15
[26] = system: MDA-MB-435
[27] = system: Malme-3M
[28] = system: MDA-MB-231
[29] = system: T47D
[30] = system: SF-539
[31] = system: RPMI-8226
[32] = system: SNB-19
[33] = system: NCI-H226
[34] = system: OVCAR-3
[35] = system: SF-268
[36] = system: SNB-75
[37] = system: UACC-257
[38] = system: NCI-H522
[39] = system: COLO 205
[40] = system: A549
[41] = system: SR
[42] = system: SK-MEL-5
[43] = system: TK-10
[44] = system: OVCAR-5
[45] = system: HL-60
[46] = system: MCF7
[47] = system: KM12
[48] = system: ACHN
[49] = system: HOP-92
[50] = system: K562
[51] = system: HOP-62
[52] = system: CAKI-1
[53] = system: HCT-116
[54] = system: SK-OV-3
[55] = system: DU-145
[56] = system: SK-MEL-28
[57] = system: HCC 2998
[58] = system: SN12C

Measured: GI50

Cc1[nH]n(C2=NCCN2)c(=O)c1C
inactive: [1] > 100 µM | [2] > 100 µM | [3] > 100 µM | [4] > 100 µM | [5] > 100 µM | [6] > 100 µM | [7] > 100 µM | [8] > 100 µM | [9] > 100 µM | [10] > 100 µM | [11] > 100 µM | [12] > 100 µM | [13] > 100 µM | [14] > 100 µM | [15] > 100 µM | [16] > 100 µM | [17] > 100 µM | [18] > 100 µM | [19] > 100 µM | [20] > 100 µM | [21] > 100 µM | [22] > 100 µM | [23] > 100 µM | [24] > 100 µM | [26] > 100 µM | [27] > 100 µM | [28] > 100 µM | [29] > 100 µM | [30] > 100 µM | [31] > 100 µM | [32] > 100 µM | [33] > 100 µM | [34] > 100 µM | [35] > 100 µM | [36] 89.5 µM | [37] > 100 µM | [38] > 100 µM | [39] > 100 µM | [40] > 100 µM | [41] > 100 µM | [42] > 100 µM | [43] > 100 µM | [44] > 100 µM | [45] > 100 µM | [46] > 100 µM | [47] > 100 µM | [48] > 100 µM | [49] > 100 µM | [50] > 100 µM | [51] > 100 µM | [52] > 100 µM | [53] > 100 µM | [54] > 100 µM
> 100 µM: [25]

COc1ccc(-c2cc(-c3ccccc3)nc3c2CC(=O)Nc2ccccc2-3)cc1OC
active: [2] 0.855 µM | [6] 0.719 µM | [22] 0.125 µM | [35] 0.933 µM | [36] 0.424 µM
inactive: [1] > 100 µM | [3] 2 µM | [4] 6.73 µM | [5] 1.2 µM | [7] > 100 µM | [8] > 100 µM | [9] > 100 µM | [10] 5.69 µM | [11] > 100 µM | [12] > 21.4 µM | [13] 1.37 µM | [14] 4.17 µM | [15] > 100 µM | [16] > 100 µM | [17] > 100 µM | [18] > 100 µM | [19] > 100 µM | [20] > 100 µM | [21] 4.79 µM | [23] 1.89 µM | [24] > 100 µM | [26] > 100 µM | [55] > 100 µM | [28] 1.32 µM | [29] > 68.9 µM | [30] 13.9 µM | [31] > 100 µM | [33] 2.92 µM | [34] 4.07 µM | [37] > 100 µM | [38] > 76.7 µM | [56] > 100 µM | [57] > 100 µM | [39] > 27.9 µM | [41] 8.18 µM | [42] 68.5 µM | [43] > 56.1 µM | [44] > 100 µM | [46] > 20 µM | [47] > 100 µM | [58] 1.26 µM | [48] 4.67 µM | [49] 5.46 µM | [50] 1.45 µM | [51] 1.81 µM | [52] > 100 µM | [54] 5.74 µM
> 100 µM: [25]

COc1cc(Oc2nc3ccccc3nc2C(=O)O)cc(OC)c1OC
> 100 µM: [25]
inactive: [1] > 100 µM | [2] > 100 µM | [3] > 100 µM | [4] > 100 µM | [5] > 100 µM | [6] > 100 µM | [7] > 100 µM | [8] > 100 µM | [9] > 100 µM | [10] > 100 µM | [11] > 100 µM | [12] > 100 µM | [13] > 100 µM | [14] > 100 µM | [15] > 100 µM | [16] > 100 µM | [17] > 100 µM | [18] > 100 µM | [19] > 100 µM | [20] > 100 µM | [21] > 100 µM | [22] > 100 µM | [23] > 100 µM | [24] > 100 µM | [26] > 100 µM | [27] > 100 µM | [55] > 100 µM | [28] > 100 µM | [29] > 100 µM | [31] > 100 µM | [32] > 100 µM | [33] > 100 µM | [34] > 100 µM | [35] > 100 µM | [36] > 100 µM | [37] > 100 µM | [38] > 100 µM | [56] > 100 µM | [57] > 100 µM | [39] > 100 µM | [40] > 100 µM | [41] > 100 µM | [42] > 100 µM | [43] > 100 µM | [44] > 100 µM | [45] > 100 µM | [47] > 100 µM | [48] > 100 µM | [49] > 100 µM | [50] > 100 µM | [51] > 100 µM | [52] > 100 µM | [53] > 100 µM | [54] > 100 µM
